This assay concerns the target recombinant human lung-derived phosphodiesterase V (Homo sapiens, UniProt O76074). The experiment in a line: Inhibitor screening system: [3H]cGMP SPA phosphodiesterase enzyme assay.

Method: A 96-well microplate (OPTI Plate, Packard) received 10 µL of a buffer solution [0.5M Tris-HCl (pH7.5), 83 mM MgCl2, 17 mM EGTA], 10 µL of the recombinant human lung-derived phosphodiesterase V obtained in Example 3 (0.025 mg/ml), 65 µL of an ultrapure water, 5 µL of an inhibitor sample and 10 µL of [^3H]cGMP, and reacted at 30°C for 30 minutes. After completion of the reaction, 50 µL of a SPA beads solution [18 mg/ml Yttrium silicate beads, 18 mM ZnSO4] was added and allowed to stand at room temperature for about 20 minutes, and then subjected to a scintillation counting (Topcount, Packard).

In the case of `Cc1c2c(c(-c3ccc(F)cc3)c3c4c(ccc13)OCO4)C(=O)NC2=O` [Formula 1], the IC50 (in general, the point on the concentration scale where inhibition reaches its midpoint) turned out to be 2.29 nM.

For the origin of these results see EP1101821A1, “NOVEL PROTEIN AND ITS DNA” (Takeda Chemical Industries, Ltd., priority 1998, dated 2000).
